Experimental data from patent US9981916B2 (Genentech, Inc., priority 2013, dated 2018).

molecular target: T1, RORc ligand binding domain (Homo sapiens, UniProt P51449); experiment: In vitro RORc ligand binding assay (25-[3H]hydroxycholesterol displacement, filter binding); conditions: 6 nM 25-[3H]hydroxycholesterol, 0.6 ug/mL RORc receptor, 3 h at 25° C.
T1 construct: host or cells: E. coli
T1 sequence (P51449 269-508 limits assumed): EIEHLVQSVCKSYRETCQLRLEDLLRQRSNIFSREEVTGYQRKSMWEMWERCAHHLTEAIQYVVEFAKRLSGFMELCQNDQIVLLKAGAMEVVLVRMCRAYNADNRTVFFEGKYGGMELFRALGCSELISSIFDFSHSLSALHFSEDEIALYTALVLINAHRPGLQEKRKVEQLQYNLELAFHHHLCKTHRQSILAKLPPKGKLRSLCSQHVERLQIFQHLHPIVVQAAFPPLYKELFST
Summary of the method: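 Filter-binding displacement of 6 nM 25-[3H]hydroxycholesterol from RORc receptor (0.6 ug/mL) in 50 mM HEPES pH 7.4, 150 mM NaCl, 5 mM MgCl2, 1 mM DTT, 0.01% BSA, 5% DMSO; 3 h at 25° C. NSB defined with 1 uM 25-hydroxycholesterol; scintillation counting gave Kiapp, IC50 or % inhibition (screening at 1 and 10 uM).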

| Structure (SMILES) | IC50 [nM] |
| --- | --- |
| CC1(C)[C@@H]2CC[C@@]1(C(=O)NCC1CC1)c1nnc(-c3ccccc3F)cc12 [Example 132, (5S,8S)-N-(cyclopropylmethyl)-3-(2-fluorophenyl)-9,9-dimethyl-5,6,7,8-tetrahydro-5,8-methanocinnoline-8-carboxamide] | 707 |
| CC1(C)[C@H]2CC[C@]1(N1CCCC1=O)c1nnc(-c3c(F)cccc3F)cc12 [Example 109, 1-[(5R,8R)-3-(2,6-difluorophenyl)-9,9-dimethyl-6,7-dihydro-5,8-methanocinnolin-8(5H)-yl]pyrrolidin-2-one] | 201 |
| CC1(C)[C@H]2CC[C@]1(Cc1noc(O)n1)c1nnc(-c3c(F)cccc3F)cc12 [Example 58, 3-{[(5R,8R)-3-(2,6-difluorophenyl)-9,9-dimethyl-6,7-dihydro-5,8-methanocinnolin-8(5H)-yl]methyl}-1,2,4-oxadiazol-5-ol] | 1050 |
| Cc1nnc(N(CCO)C[C@@]23CC[C@@H](c4cc(-c5c(F)cccc5F)nnc42)C3(C)C)o1 [Example 155, 2-((((5R,8S)-3-(2,6-difluorophenyl)-9,9-dimethyl-5,6,7,8-tetrahydro-5,8-methanocinnolin-8-yl)methyl)(5-methyl-1,3,4-oxadiazol-2-yl)amino)ethanol] | 67 |
| CC(C)OC[C@]12CC[C@H](c3cc(-c4ccccc4F)nnc31)C2(C)C [Example 38, (5S,8S)-3-(2-fluorophenyl)-9,9-dimethyl-8-[(propan-2-yloxy)methyl]-5,6,7,8-tetrahydro-5,8-methanocinnoline] | 281 |
| CC1(C)[C@H]2CC[C@]1(c1ccn[nH]1)c1nnc(-c3c(F)cccc3F)cc12 [Example 113, (5R,8S)-3-(2,6-difluorophenyl)-9,9-dimethyl-8-(1H-pyrazol-5-yl)-5,6,7,8-tetrahydro-5,8-methanocinnoline] | 43 |
| CC1CN(C(=O)[C@]23CC[C@H](c4cc(-c5c(F)cccc5F)nnc42)C3(C)C)C1 [Example 100, [(5S,8S)-3-(2,6-difluorophenyl)-9,9-dimethyl-6,7-dihydro-5,8-methanocinnolin-8(5H)-yl](3-methylazetidin-1-yl)methanone] | 70 |
| CN(C)C(=O)C[C@]12CC[C@H](c3cc(-c4ccccc4F)nnc31)C2(C)C [Example 36, 2-[(5S,8S)-3-(2-fluorophenyl)-9,9-dimethyl-6,7-dihydro-5,8-methanocinnolin-8(5H)-yl]-N,N-dimethylacetamide] | 5170 |
| CC1(C)[C@H]2CC[C@]1(C(=O)Nc1ccccc1C#N)c1nnc(-c3ccccc3F)cc12 [Example 171, (5R,8R)-N-(2-cyanophenyl)-3-(2-fluorophenyl)-9,9-dimethyl-5,6,7,8-tetrahydro-5,8-methanocinnoline-8-carboxamide] | 3380 |
| CNC(=O)[C@]12CC[C@H](c3cc(-c4c(F)cccc4F)nnc31)C2(C)C [Example 53, (5S,8S)-3-(2,6-difluorophenyl)-N,9,9-trimethyl-6,7-dihydro-5,8-methanocinnoline-8(5H)-carboxamide] | 139 |
| CC1(C)[C@@H]2CC[C@@]1(c1nnc(CO)o1)c1nnc(-c3c(F)cccc3F)cc12 [Example 111, {5-[(5S,8S)-3-(2,6-difluorophenyl)-9,9-dimethyl-6,7-dihydro-5,8-methanocinnolin-8(5H)-yl]-1,3,4-oxadiazol-2-yl}methanol] | 195 |
| CC1(C)[C@@H]2CC[C@@]1(C(=O)Nc1ccc(C#N)cn1)c1nnc(-c3ccccc3F)cc12 [Example 128, (5S,8S)-N-(5-cyanopyridin-2-yl)-3-(2-fluorophenyl)-9,9-dimethyl-5,6,7,8-tetrahydro-5,8-methanocinnoline-8-carboxamide] | 848 |
| Cc1ncc([C@@]23CC[C@@H](c4cc(-c5c(F)cccc5F)nnc42)C3(C)C)o1 [Example 117, (5R,8R)-3-(2,6-difluorophenyl)-9,9-dimethyl-8-(2-methyl-1,3-oxazol-5-yl)-5,6,7,8-tetrahydro-5,8-methanocinnoline] | 19 |
| CC1(C)[C@@H]2CC[C@@]1(C(=O)N1CCC1)c1nnc(-c3c(F)cccc3F)cc12 [Example 49, azetidin-1-yl[(5S,8S)-3-(2,6-difluorophenyl)-9,9-dimethyl-6,7-dihydro-5,8-methanocinnolin-8(5H)-yl]methanone] | 44 |
| CC1(C)[C@H]2C=C[C@]1(C)c1nnc(-c3c(F)cccc3F)cc12 [Example 126, (5R,8S)-3-(2,6-difluorophenyl)-8,9,9-trimethyl-5,8-dihydro-5,8-methanocinnoline] | 340 |
| COC[C@@]12CC[C@@H](c3cc(-c4c(F)cccc4Cl)nnc31)C2(C)C [Example 29, (5R,8R)-3-(2-chloro-6-fluorophenyl)-8-(methoxymethyl)-9,9-dimethyl-5,6,7,8-tetrahydro-5,8-methanocinnoline] | 41 |

Next, values leading:

| IC50 [nM] | Structure (SMILES) |
| --- | --- |
| 1500 | CC1(C)[C@@H]2CC[C@@]1(C(=O)NC1CCC1)c1nnc(-c3ccccc3F)cc12 [Example 333, (5S,8S)-N-cyclobutyl-3-(2-fluorophenyl)-9,9-dimethyl-5,6,7,8-tetrahydro-5,8-methanocinnoline-8-carboxamide] |
| 66 | CC1(C)[C@H]2CC[C@]1(COCc1ccccc1)c1nnc(Oc3c(F)cccc3F)cc12 [Example 338, (5R,8R)-8-((benzyloxy)methyl)-3-(2,6-difluorophenoxy)-9,9-dimethyl-5,6,7,8-tetrahydro-5,8-methanocinnoline] |
| 137 | Cc1ocnc1[C@]12CC[C@H](c3cc(-c4c(F)cccc4F)nnc31)C2(C)C [Example 228, 4-((5S,8R)-3-(2,6-difluorophenyl)-9,9-dimethyl-5,6,7,8-tetrahydro-5,8-methanocinnolin-8-yl)-5-methyloxazole] |
| 944 | CN(C)C(=O)N(C)[C@@]12CC[C@@H](c3cc(-c4c(F)cccc4F)nnc31)C2(C)C [Example 325, 1-((5R,8R)-3-(2,6-difluorophenyl)-9,9-dimethyl-5,6,7,8-tetrahydro-5,8-methanocinnolin-8-yl)-1,3,3-trimethylurea] |
| 1550 | CC(C)CNC(=O)[C@]12CC[C@H](c3cc(-c4c(F)cccc4F)nnc31)C2(C)C [Example 209, (5S,8S)-3-(2,6-difluorophenyl)-N-isobutyl-9,9-dimethyl-5,6,7,8-tetrahydro-5,8-methanocinnoline-8-carboxamide] |
| 226 | CC1(C)[C@H]2CC[C@]1(CN(CCO)C(N)=O)c1nnc(-c3c(F)cccc3F)cc12 [Example 283, 1-(((5R,8S)-3-(2,6-difluorophenyl)-9,9-dimethyl-5,6,7,8-tetrahydro-5,8-methanocinnolin-8-yl)methyl)-1-(2-hydroxyethyl)urea] |
| 50 | CC1(C)[C@H]2CC[C@]1(c1ccno1)c1nnc(-c3c(F)cccc3F)cc12 [Example 194, 5-((5R,8R)-3-(2,6-difluorophenyl)-9,9-dimethyl-5,6,7,8-tetrahydro-5,8-methanocinnolin-8-yl)isoxazole] |
| 453 | CC1(C)[C@H]2CC[C@]1(CN1CCCC1=O)c1nnc(-c3c(F)cccc3F)cc12 [Example 273, 1-(((5R,8S)-3-(2,6-difluorophenyl)-9,9-dimethyl-5,6,7,8-tetrahydro-5,8-methanocinnolin-8-yl)methyl)pyrrolidin-2-one] |
